The structures appear in SMILES notation. Like-named read-outs stand apart in the source and are kept apart here.

In the assay the target is hQC (Homo sapiens, UniProt Q16769). In words: Inhibitor assay for glutaminyl cyclase activity (fluorometric, H-Gln-βNA / H-Gln-AMC). The class given is biochemical. In outline: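 Ki values came from fitting progress curves to a competitive inhibition model; rapid screens used 4 mM inhibitor with substrate at KM. QC activity was read at 30 °C via auxiliary pyroglutamyl aminopeptidase releasing βNA (0.2 mM H-Gln-βNA, 0.2 M Tris pH 8.0, 20 mM EDTA) or AMC (0.05 M Tris pH 8.0, 5 mM EDTA).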
hQC, sequence (Q16769 29-361): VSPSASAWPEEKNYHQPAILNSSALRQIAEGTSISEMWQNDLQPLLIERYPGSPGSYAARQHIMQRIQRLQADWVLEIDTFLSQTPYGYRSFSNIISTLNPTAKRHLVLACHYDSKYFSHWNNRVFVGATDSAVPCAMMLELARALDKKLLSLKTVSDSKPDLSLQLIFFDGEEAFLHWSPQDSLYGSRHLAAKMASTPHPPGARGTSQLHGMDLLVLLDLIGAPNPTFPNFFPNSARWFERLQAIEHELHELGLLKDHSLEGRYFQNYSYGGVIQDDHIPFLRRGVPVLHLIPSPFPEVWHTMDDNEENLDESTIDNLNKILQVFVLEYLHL

Setting [1] is: compound from preparative synthesis, purified, read-out: IC50 hQC.

`CC1=C(O)C(=O)N(c2ccc3nc[nH]c3c2)C1c1cccc(F)c1F` (stereo not shown) [Compound 259, 1-(1H-Benzoimidazol-5-yl)-5-(2,3-difluoro-phenyl)-3-hydroxy-4-methyl-1,5-dihydro-pyrrol-2-one]: the IC50 (in general, the concentration at which inhibition is half-maximal) (read-out: IC50) was determined as 1.3 µM.
Same read-out and setting: then `O=C(O)CC1=C(O)C(=O)N(c2ccc3[nH]cnc3c2)C1c1cccc2cccnc12` (stereo not shown) [Compound 354, [1-(1H-Benzoimidazol-5-yl)-4-hydroxy-5-oxo-2-quinolin-8-yl-2,5-dihydro-1H-pyrrol-3-yl]-acetic acid], with 8.77 µM; and `CCC1=C(O)C(=O)N(CCCn2ccnc2)C1c1ccc(C)cc1` (stereo not shown) [Compound 221, 4-Ethyl-3-hydroxy-1-(3-imidazol-1-yl-propyl)-5-p-tolyl-1,5-dihydro-pyrrol-2-one], with 0.4 µM.
For the molecule `CCC1=C(O)C(=O)N(c2ccc3[nH]cnc3c2)C1c1c(F)c(F)cc(F)c1F` (stereo not shown) [Compound 400, 1-(1H-Benzoimidazol-5-yl)-4-ethyl-3-hydroxy-5-(2,3,5,6-tetrafluoro-phenyl)-1,5-dihydro-pyrrol-2-one], under “read-out: IC50”, the IC50 was 6.97 µM.
On the same count and under the same terms, then `CC(C)(C)C(=O)C1=C(O)C(=O)N(c2ccc3[nH]cnc3c2)C1c1c(F)c(F)cc(F)c1F` (stereo not shown) [Compound 442, 1-(1H-Benzoimidazol-5-yl)-4-(2,2-dimethyl-propionyl)-3-hydroxy-5-(2,3,5,6-tetrafluoro-phenyl)-1,5-dihydro-pyrrol-2-one], with 8.59 µM.
Turning to `O=C1C(O)=C(c2cccc(O)c2)C(c2c[nH]c3ccccc23)N1CCCn1ccnc1` (stereo not shown) [Compound 18, 3-Hydroxy-4-(3-hydroxy-phenyl)-1-(3-imidazol-1-yl-propyl)-5-(1H-indol-3-yl)-1,5-dihydro-pyrrol-2-one], under “read-out: IC50”, the IC50 stood at 9.4 µM.
The same measure, in the same setting: then `O=C(C1=C(O)C(=O)N(c2ccc3[nH]cnc3c2)C1c1ccc(CO)o1)c1ccncc1` (stereo not shown) [Compound 272, 1-(1H-Benzoimidazol-5-yl)-3-hydroxy-5-(5-hydroxymethyl-furan-2-yl)-4-(pyridine-4-carbonyl)-1,5-dihydro-pyrrol-2-one], with 3.73 µM; and `CCCC1C(C)=C(O)C(=O)N1CCCn1ccnc1` (stereo not shown) [Compound 22, 3-Hydroxy-1-(3-imidazol-1-yl-propyl)-4-methyl-5-propyl-1,5-dihydro-pyrrol-2-one], with 4.9 µM; and `CC(=O)C1=C(O)C(=O)N(c2ccc3[nH]cnc3c2)C1c1cccc(C)n1` (stereo not shown) [Compound 330, 4-Acetyl-1-(1H-benzoimidazol-5-yl)-3-hydroxy-5-(6-methyl-pyridin-2-yl)-1,5-dihydro-pyrrol-2-one], with 2.11 µM.
Same read-out and setting: then `CC1C(c2c[nH]c3ccccc23)=C(O)C(=O)N1CCCn1ccnc1` (stereo not shown) [Compound 125, 3-Hydroxy-1-(3-imidazol-1-yl-propyl)-4-(1H-indol-3-yl)-5-methyl-1,5-dihydro-pyrrol-2-one], with 0.4 µM; and `O=C1C(O)=C(c2ccccc2)C(c2ccncc2)N1CCCn1ccnc1` (stereo not shown) [Compound 102, 3-Hydroxy-1-(3-imidazol-1-yl-propyl)-4-phenyl-5-pyridin-4-yl-1,5-dihydro-pyrrol-2-one], with 8.5 µM.
In the case of `CCCCCC1=C(O)C(=O)N(CCCn2ccnc2)C1c1ccc(O)cc1` (stereo not shown) [Compound 218, 3-Hydroxy-5-(4-hydroxy-phenyl)-1-(3-imidazol-1-yl-propyl)-4-pentyl-1,5-dihydro-pyrrol-2-one], the IC50 was determined as 0.613 µM under setting [1] and 0.04 µM (read-out: IC50).
For `CCC/C=C/C1C(c2ccc(O)cc2)=C(O)C(=O)N1CCCn1ccnc1` (stereo not shown) [Compound 149, 3-Hydroxy-4-(4-hydroxy-phenyl)-1-(3-imidazol-1-yl-propyl)-5-(pent-1-enyl)-1,5-dihydro-pyrrol-2-one], the IC50 (read-out: IC50) turned out to be 1.3 µM.
On the same count and under the same terms, then `CC(=O)C1=C(O)C(=O)N(c2ccc3[nH]cnc3c2)C1c1ccc(C(=O)O)o1` (stereo not shown) [Compound 410, 5-[3-Acetyl-1-(1H-benzoimidazol-5-yl)-4-hydroxy-5-oxo-2,5-dihydro-1H-pyrrol-2-yl]-furan-2-carboxylic acid], with 1.03 µM; and `CCC1C(C)=C(O)C(=O)N1CCCn1ccnc1` (stereo not shown) [Compound 49, 5-Ethyl-3-hydroxy-1-(3-imidazol-1-yl-propyl)-4-methyl-1,5-dihydro-pyrrol-2-one], with 4.9 µM.
Take `CCCC1C(C(C)C)=C(O)C(=O)N1CCCn1ccnc1` (stereo not shown) [Compound 55, 3-Hydroxy-1-(3-imidazol-1-yl-propyl)-4-isopropyl-5-propyl-1,5-dihydro-pyrrol-2-one]: the half-maximal inhibitory concentration (IC50) (read-out: IC50) is 5.8 µM.
For `O=C1C(O)=C(c2ccc(O)cc2)C(c2ccc3[nH]ccc3c2)N1CCCn1ccnc1` (stereo not shown) [Compound 155, 3-Hydroxy-4-(4-hydroxy-phenyl)-1-(3-imidazol-1-yl-propyl)-5-(1H-indol-5-yl)-1,5-dihydro-pyrrol-2-one], the IC50 was found to be 0.37 µM under setting [1] and 0.04 µM (read-out: IC50).
As for `CC(C)CC(=O)C1=C(O)C(=O)N(c2ccc3[nH]cnc3c2)C1c1ccc2cccc(O)c2n1` (stereo not shown) [Compound 327, 1-(1H-Benzoimidazol-5-yl)-3-hydroxy-5-(8-hydroxy-quinolin-2-yl)-4-(3-methyl-butyryl)-1,5-dihydro-pyrrol-2-one], the IC50 runs as follows: under setting [1], 0.0045 µM; (read-out: IC50) 0.004 µM.
Consider `O=C1C(O)=C(c2c[nH]c3ccccc23)C(C(F)(F)F)N1CCCn1ccnc1` (stereo not shown) [Compound 131, 3-Hydroxy-1-(3-imidazol-1-yl-propyl)-4-(1H-indol-3-yl)-5-trifluoromethyl-1,5-dihydro-pyrrol-2-one], for which, for the setting “read-out: IC50”, the IC50 is 1.3 µM.
On the same count and under the same terms, then `CC1=C(O)C(=O)N(c2ccc3[nH]cnc3c2)C1c1ccco1` (stereo not shown) [Compound 426, 1-(1H-Benzoimidazol-5-yl)-5-furan-2-yl-3-hydroxy-4-methyl-1,5-dihydro-pyrrol-2-one], with 0.004 µM.
Take `CCCCCC1=C(O)C(=O)N(CCCn2ccnc2)C1c1ccccc1F` (stereo not shown) [Compound 217, 5-(2-Fluoro-phenyl)-3-hydroxy-1-(3-imidazol-1-yl-propyl)-4-pentyl-1,5-dihydro-pyrrol-2-one]: the half-maximal inhibitory concentration (IC50) under setting [1] is 1.54 µM and the IC50 (read-out: IC50) came out at 0.04 µM.
As to `CCCCCC1=C(O)C(=O)N(CCCn2ccnc2)C1Cc1ccccc1` (stereo not shown) [Compound 206, 5-Benzyl-3-hydroxy-1-(3-imidazol-1-yl-propyl)-4-pentyl-1,5-dihydro-pyrrol-2-one], the IC50 (read-out: IC50) was 0.4 µM.
In the case of `CC(C)C1=C(O)C(=O)N(CCCn2ccnc2)C1/C=C/c1ccccc1` (stereo not shown) [Compound 64, 3-Hydroxy-1-(3-imidazol-1-yl-propyl)-4-isopropyl-5-(styryl)-1,5-dihydro-pyrrol-2-one], where the note is “read-out: IC50”, the half-maximal inhibitory concentration (IC50) amounted to 3.1 µM.
Take `CCCCCC1=C(O)C(=O)N(CCCn2ccnc2)C1c1ccc(CO)o1` (stereo not shown) [Compound 198, 3-Hydroxy-5-(5-hydroxymethyl-furan-2-yl)-1-(3-imidazol-1-yl-propyl)-4-pentyl-1,5-dihydro-pyrrol-2-one]: the IC50 (read-out: IC50) was determined as 0.04 µM.
In the case of `CC1=C(O)C(=O)N(c2ccc3[nH]cnc3c2)C1c1cccc(C)c1` (stereo not shown) [Compound 416, 1-(1H-Benzoimidazol-5-yl)-3-hydroxy-4-methyl-5-m-tolyl-1,5-dihydro-pyrrol-2-one], where the note is “read-out: IC50”, the IC50 amounted to 9.94 µM.
Same read-out and setting: then `CCC1=C(O)C(=O)N(CCCn2ccnc2)C1C` (stereo not shown) [Compound 233, 4-Ethyl-3-hydroxy-1-(3-imidazol-1-yl-propyl)-5-methyl-1,5-dihydro-pyrrol-2-one], with 2.2 µM; and `CC(C)C1=C(O)C(=O)N(c2ccc3[nH]cnc3c2)C1c1ccc(O)c(Br)c1` (stereo not shown) [Compound 377, 1-(1H-Benzoimidazol-5-yl)-5-(3-bromo-4-hydroxy-phenyl)-3-hydroxy-4-isopropyl-1,5-dihydro-pyrrol-2-one], with 1.48 µM.
As to `CC(C)(C)C(=O)C1=C(O)C(=O)N(c2ccc3[nH]cnc3c2)C1c1cc(F)cc(F)c1F` (stereo not shown) [Compound 341, 1-(1H-Benzoimidazol-5-yl)-4-(2,2-dimethyl-propionyl)-3-hydroxy-5-(2,3,5-trifluoro-phenyl)-1,5-dihydro-pyrrol-2-one], the IC50 (read-out: IC50) is 4.9 µM.
On the same count and under the same terms, then `CC(C)CC(=O)C1=C(O)C(=O)N(c2ccc3[nH]cnc3c2)C1c1ccco1` (stereo not shown) [Compound 413, 1-(1H-Benzoimidazol-5-yl)-5-furan-2-yl-3-hydroxy-4-(3-methyl-butyryl)-1,5-dihydro-pyrrol-2-one], with 1.48 µM; and `CC(C)/C=C/C1C(c2ccc(O)cc2)=C(O)C(=O)N1CCCn1ccnc1` (stereo not shown) [Compound 153, 3-Hydroxy-4-(4-hydroxy-phenyl)-1-(3-imidazol-1-yl-propyl)-5-(3-methyl-but-1-enyl)-1,5-dihydro-pyrrol-2-one], with 2.2 µM; and `CC1=C(O)C(=O)N(CCCn2ccnc2)C1/C=C/C(C)C` (stereo not shown) [Compound 24, 3-Hydroxy-1-(3-imidazol-1-yl-propyl)-4-methyl-5-(3-methyl-but-1-enyl)-1,5-dihydro-pyrrol-2-one], with 5.8 µM.
Same read-out and setting: then `O=C1C(O)=C(c2c[nH]c3ccccc23)C(c2ccccc2O)N1CCCn1ccnc1` (stereo not shown) [Compound 122, 3-Hydroxy-5-(2-hydroxy-phenyl)-1-(3-imidazol-1-yl-propyl)-4-(1H-indol-3-yl)-1,5-dihydro-pyrrol-2-one], with 0.04 µM; and `O=C1C(O)=C(c2c[nH]c3ccccc23)C(c2ccco2)N1CCCn1ccnc1` (stereo not shown) [Compound 140, 5-Furan-2-yl-3-hydroxy-1-(3-imidazol-1-yl-propyl)-4-(1H-indol-3-yl)-1,5-dihydro-pyrrol-2-one], with 0.4 µM.
As to `O=C1C(O)=C(c2c[nH]c3ccccc23)C(c2ncc[nH]2)N1CCCn1ccnc1` (stereo not shown) [Compound 133, 3-Hydroxy-5-(1H-imidazol-2-yl)-1-(3-imidazol-1-yl-propyl)-4-(1H-indol-3-yl)-1,5-dihydro-pyrrol-2-one], the IC50 (read-out: IC50) came to 1.3 µM.
Regarding `CCCCCC1=C(O)C(=O)N(CCCn2ccnc2)C1c1cccc(Cl)c1` (stereo not shown) [Compound 216, 5-(3-Chloro-phenyl)-3-hydroxy-1-(3-imidazol-1-yl-propyl)-4-pentyl-1,5-dihydro-pyrrol-2-one], the IC50 runs as follows: under setting [1], 0.236 µM; (read-out: IC50) 0.04 µM.
